Patent publication US20220119354A1, “DIAMINO-SUBSTITUTED PYRIDINES AND PYRIMIDINES AS HERBICIDES” (FMC Corporation, priority 2019, published 2022)

Assays:
Format in all cases: in vivo
[1] = test system: barnyardgrass (Echinochloa crus-galli); experiment: Test B flooded paddy test, barnyardgrass; conditions: Flood, 250 g ai/ha, applied to paddy water, 2-leaf stage, visual evaluation after 13 to 15 d
Summary of the method: (§1)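 Growth to two leaves preceded treatment. Flooding to 3 cm above soil surface, then water-applied compound; depth kept constant. Scored visually relative to controls after 13–15 d greenhouse; 100 means full control.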

[2] = test system: ragweed (common ragweed, Ambrosia elatior); experiment: Test A preemergence, ragweed; conditions: 0 to 100 scale; for Ragweed plant response rating: 0 is no effect, 100 is complete control
Summary of the method: (§2)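 Ratings reflect visual comparison with untreated controls roughly 10 d after greenhouse application, 0 meaning no effect and 100 complete control. Treatment was by directed soil spray at planting or by spray onto one- to two-leaf plants in loam/sand pots.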

[3] = test system: wheat (Triticum aestivum); experiment: Test A postemergence, wheat; conditions: 0 to 100 scale
Summary of the method: as §2

[4] = test system: foxtail, giant (Setaria faberii); experiment: Test A postemergence, giant foxtail; conditions: 0 to 100 scale
Summary of the method: as §2

kochia (Kochia scoparia) [5] = experiment: Test A postemergence, kochia; conditions: 0 to 100 scale
Summary of the method: as §2

[6] = test system: galium (catchweed bedstraw, Galium aparine); experiment: Test A postemergence, galium; conditions: 0 to 100 scale
Summary of the method: as §2

[7] = test system: foxtail, giant (Setaria faberii); experiment: Test A preemergence, giant foxtail; conditions: 0 to 100 scale; for Foxtail, Giant plant response rating: 0 is no effect, 100 is complete control
Summary of the method: as §2

kochia (Kochia scoparia) [8] = experiment: Test A preemergence, kochia; conditions: 0 to 100 scale; for Kochia plant response rating: 0 is no effect, 100 is complete control
Summary of the method: as §2

[9] = test system: pigweed (Amaranthus retroflexus); experiment: Test A preemergence, pigweed; conditions: 0 to 100 scale; for Pigweed plant response rating: 0 is no effect, 100 is complete control
Summary of the method: as §2

[10] = test system: ryegrass, Italian (Lolium multiflorum); experiment: Test A postemergence, Italian ryegrass; conditions: 0 to 100 scale
Summary of the method: as §2

[11] = test system: blackgrass (Alopecurus myosuroides); experiment: Test A postemergence, blackgrass; conditions: 0 to 100 scale
Summary of the method: as §2

[12] = test system: ryegrass, Italian (Lolium multiflorum); experiment: Test A preemergence, Italian ryegrass; conditions: 0 to 100 scale; for Ryegrass, Italian plant response rating: 0 is no effect, 100 is complete control
Summary of the method: as §2

[13] = test system: barnyardgrass (Echinochloa crus-galli); experiment: Test A preemergence, barnyardgrass; conditions: 0 to 100 scale; for Barnyardgrass plant response rating: 0 is no effect, 100 is complete control
Summary of the method: as §2

rice (Oryza sativa) = experiment: Test B flooded paddy test, rice; conditions: Flood, 250 g ai/ha, applied to paddy water, 2-leaf stage, visual evaluation after 13 to 15 d
Summary of the method: as §1

corn (Zea mays) = experiment: Test A postemergence, corn; conditions: 0 to 100 scale
Summary of the method: as §2

[14] = test system: ducksalad (Heteranthera limosa); experiment: Test B flooded paddy test, ducksalad; conditions: Flood, 250 g ai/ha, applied to paddy water, 2-leaf stage, visual evaluation after 13 to 15 d
Summary of the method: as §1

[15] = test system: sedge, umbrella (small-flower umbrella sedge, Cyperus difformis); experiment: Test B flooded paddy test, umbrella sedge; conditions: Flood, 250 g ai/ha, applied to paddy water, 2-leaf stage, visual evaluation after 13 to 15 d
Summary of the method: as §1

[16] = test system: barnyardgrass (Echinochloa crus-galli); experiment: Test A postemergence, barnyardgrass; conditions: 0 to 100 scale
Summary of the method: as §2

[17] = test system: ragweed (common ragweed, Ambrosia elatior); experiment: Test A postemergence, ragweed; conditions: 0 to 100 scale
Summary of the method: as §2

[18] = test system: pigweed (Amaranthus retroflexus); experiment: Test A postemergence, pigweed; conditions: 0 to 100 scale
Summary of the method: as §2

[19] = 31 g ai/ha, 0 no effect, 100 complete control
[20] = 125 g ai/ha, 0 no effect, 100 complete control
[21] = 500 g ai/ha, 0 no effect, 100 complete control

SMILES: C[C@@H](Nc1ncc(C(F)(F)F)c(N)n1)c1cc2c(Cl)cccc2s1 [Compound 116]
- Plant response rating, Barnyardgrass (0 to 100 scale, 0 is no effect, 100 is complete control) [1]: 35
- Ragweed plant response rating ([2]; 31 g ai/ha): 60
- Ragweed plant response rating ([2]; 125 g ai/ha): 70
- Plant response rating, Wheat [3, 19]: 0
- Plant response rating, Wheat [3, 20]: 0
- Plant response rating, Foxtail, Giant [4, 19]: 10
- Plant response rating, Foxtail, Giant [4, 20]: 90
- Plant response rating, Kochia (kochia (Kochia scoparia) [5]; [19]): 30
- Plant response rating, Kochia (kochia (Kochia scoparia) [5]; [20]): 80
- Plant response rating, Galium [6, 19]: 60
- Plant response rating, Galium [6, 20]: 80
- Foxtail, Giant plant response rating ([7]; 31 g ai/ha): 20
- Foxtail, Giant plant response rating ([7]; 125 g ai/ha): 60
- Kochia plant response rating (kochia (Kochia scoparia) [8]; 31 g ai/ha): 30
- Kochia plant response rating (kochia (Kochia scoparia) [8]; 125 g ai/ha): 40
- Pigweed plant response rating ([9]; 31 g ai/ha): 40
- Pigweed plant response rating ([9]; 125 g ai/ha): 80
- Plant response rating, Ryegrass, Italian [10, 19]: 30
- Plant response rating, Ryegrass, Italian [10, 20]: 30
- Plant response rating, Blackgrass [11, 19]: 0
- Plant response rating, Blackgrass [11, 20]: 0
- Ryegrass, Italian plant response rating ([12]; 31 g ai/ha): 20
- Ryegrass, Italian plant response rating ([12]; 125 g ai/ha): 40
- Barnyardgrass plant response rating ([13]; 31 g ai/ha): 0
- Barnyardgrass plant response rating ([13]; 125 g ai/ha): 30
- Plant response rating, Rice (0 to 100 scale, 0 is no effect, 100 is complete control) (rice (Oryza sativa)): 0
- Plant response rating, Corn (corn (Zea mays); [19]): 20
- Plant response rating, Corn (corn (Zea mays); [20]): 30
- Plant response rating, Ducksalad (0 to 100 scale, 0 is no effect, 100 is complete control) [14]: 60
- Plant response rating, Sedge, Umbrella (0 to 100 scale, 0 is no effect, 100 is complete control) [15]: 65
- Plant response rating, Barnyardgrass [16, 19]: 10
- Plant response rating, Barnyardgrass [16, 20]: 50
- Plant response rating, Ragweed [17, 19]: 40
- Plant response rating, Ragweed [17, 20]: 60
- Plant response rating, Pigweed [18, 19]: 90
- Plant response rating, Pigweed [18, 20]: 100

SMILES: CCC(Nc1ncc(C(F)(F)F)c(N)n1)c1cc2ccccc2o1 (racemic) [Compound 28]
- Plant response rating, Barnyardgrass (0 to 100 scale, 0 is no effect, 100 is complete control) [1]: 0
- Plant response rating, Ragweed ([2]; 125 g ai/ha): 20
- Plant response rating, Ragweed ([2]; 500 g ai/ha): 100
- Plant response rating, Wheat ([3]; 125 g ai/ha): 0
- Plant response rating, Wheat ([3]; 500 g ai/ha): 10
- Plant response rating, Foxtail, Giant ([4]; 125 g ai/ha): 10
- Plant response rating, Foxtail, Giant ([4]; 500 g ai/ha): 40
- Plant response rating, Kochia (kochia (Kochia scoparia) [5]; 125 g ai/ha): 30
- Plant response rating, Kochia (kochia (Kochia scoparia) [5]; 500 g ai/ha): 80
- Plant response rating, Galium ([6]; 125 g ai/ha): 70
- Plant response rating, Galium ([6]; 500 g ai/ha): 90
- Plant response rating, Foxtail, Giant ([7]; 125 g ai/ha): 60
- Plant response rating, Foxtail, Giant ([7]; 500 g ai/ha): 90
- Plant response rating, Kochia (kochia (Kochia scoparia) [8]; 125 g ai/ha): 10
- Plant response rating, Kochia (kochia (Kochia scoparia) [8]; 500 g ai/ha): 90
- Plant response rating, Pigweed ([9]; 125 g ai/ha): 90
- Plant response rating, Pigweed ([9]; 500 g ai/ha): 100
- Plant response rating, Ryegrass, Italian ([10]; 125 g ai/ha): 0
- Plant response rating, Ryegrass, Italian ([10]; 500 g ai/ha): 0
- Plant response rating, Blackgrass ([11]; 125 g ai/ha): 10
- Plant response rating, Blackgrass ([11]; 500 g ai/ha): 80
- Plant response rating, Ryegrass, Italian ([12]; 125 g ai/ha): 20
- Plant response rating, Ryegrass, Italian ([12]; 500 g ai/ha): 60
- Plant response rating, Barnyardgrass ([13]; 125 g ai/ha): 50
- Plant response rating, Barnyardgrass ([13]; 500 g ai/ha): 90
- Plant response rating, Rice (0 to 100 scale, 0 is no effect, 100 is complete control) (rice (Oryza sativa)): 20
- Plant response rating, Corn (corn (Zea mays); 125 g ai/ha): 0
- Plant response rating, Corn (corn (Zea mays); 500 g ai/ha): 80
- Plant response rating, Ducksalad (0 to 100 scale, 0 is no effect, 100 is complete control) [14]: 75
- Plant response rating, Sedge, Umbrella (0 to 100 scale, 0 is no effect, 100 is complete control) [15]: 100
- Plant response rating, Barnyardgrass ([16]; 125 g ai/ha): 0
- Plant response rating, Barnyardgrass ([16]; 500 g ai/ha): 30
- Plant response rating, Ragweed ([17]; 125 g ai/ha): 20
- Plant response rating, Ragweed ([17]; 500 g ai/ha): 60
- Plant response rating, Pigweed ([18]; 125 g ai/ha): 90
- Plant response rating, Pigweed ([18]; 500 g ai/ha): 100

SMILES: CC(Nc1ncc(C(F)(F)F)c(N)n1)c1cc2ccc(F)c(F)c2s1 (stereo not drawn) [Compound 86]
- Plant response rating, Barnyardgrass (0 to 100 scale, 0 is no effect, 100 is complete control) [1]: 60
- Ragweed plant response rating ([2]; 125 g ai/ha): 100
- Ragweed plant response rating ([2]; 500 g ai/ha): 100
- Plant response rating, Wheat [3, 20]: 0
- Plant response rating, Wheat [3, 21]: 0
- Plant response rating, Foxtail, Giant [4, 20]: 60
- Plant response rating, Foxtail, Giant [4, 21]: 60
- Plant response rating, Kochia (kochia (Kochia scoparia) [5]; [20]): 70
- Plant response rating, Kochia (kochia (Kochia scoparia) [5]; [21]): 90
- Plant response rating, Galium [6, 20]: 70
- Plant response rating, Galium [6, 21]: 70
- Foxtail, Giant plant response rating ([7]; 125 g ai/ha): 70
- Foxtail, Giant plant response rating ([7]; 500 g ai/ha): 100
- Kochia plant response rating (kochia (Kochia scoparia) [8]; 125 g ai/ha): 80
- Kochia plant response rating (kochia (Kochia scoparia) [8]; 500 g ai/ha): 100
- Pigweed plant response rating ([9]; 125 g ai/ha): 100
- Pigweed plant response rating ([9]; 500 g ai/ha): 100
- Plant response rating, Ryegrass, Italian [10, 20]: 0
- Plant response rating, Ryegrass, Italian [10, 21]: 50
- Plant response rating, Blackgrass [11, 20]: 0
- Plant response rating, Blackgrass [11, 21]: 10
- Ryegrass, Italian plant response rating ([12]; 125 g ai/ha): 20
- Ryegrass, Italian plant response rating ([12]; 500 g ai/ha): 70
- Barnyardgrass plant response rating ([13]; 125 g ai/ha): 70
- Barnyardgrass plant response rating ([13]; 500 g ai/ha): 90
- Plant response rating, Rice (0 to 100 scale, 0 is no effect, 100 is complete control) (rice (Oryza sativa)): 0
- Plant response rating, Corn (corn (Zea mays); [20]): 0
- Plant response rating, Corn (corn (Zea mays); [21]): 0
- Plant response rating, Ducksalad (0 to 100 scale, 0 is no effect, 100 is complete control) [14]: 75
- Plant response rating, Sedge, Umbrella (0 to 100 scale, 0 is no effect, 100 is complete control) [15]: 98
- Plant response rating, Barnyardgrass [16, 20]: 40
- Plant response rating, Barnyardgrass [16, 21]: 50
- Plant response rating, Ragweed [17, 20]: 20
- Plant response rating, Ragweed [17, 21]: 80
- Plant response rating, Pigweed [18, 20]: 90
- Plant response rating, Pigweed [18, 21]: 100
